# Assay results reported in PubChem BioAssay (NCI).
#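 The compound was tested at five concentrations on cells cultured in 96-well plates, with a 48-hour exposure period. GI50 marks 50% less growth. Definition used: TGI = concentration required for complete inhibition of growth.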
# Columns and labels:
# Test in all cases: NCI anticancer screen, dose series, 48 h
# 786-0 renal = test system: 786-0 renal
# A498 renal = test system: A498 renal
# A549 NSCLC = test system: A549 NSCLC
# ACHN renal = test system: ACHN renal
# BT-549 breast = test system: BT-549 breast
# CAKI-1 renal = test system: CAKI-1 renal
# CCRF-CEM leukemia = test system: CCRF-CEM leukemia
# COLO 205 colon = test system: COLO 205 colon
# DU-145 prostate = test system: DU-145 prostate
# EKVX NSCLC = test system: EKVX NSCLC
# HCC-2998 colon = test system: HCC-2998 colon
# HCT-116 colon = test system: HCT-116 colon
# HCT-15 colon = test system: HCT-15 colon
# HL-60(TB) leukemia = test system: HL-60(TB) leukemia
# HOP-62 NSCLC = test system: HOP-62 NSCLC
# HOP-92 NSCLC = test system: HOP-92 NSCLC
# HS 578T breast = test system: HS 578T breast
# HT29 colon = test system: HT29 colon
# IGROV1 ovarian = test system: IGROV1 ovarian
# K-562 leukemia = test system: K-562 leukemia
# KM12 colon = test system: KM12 colon
# LOX IMVI melanoma = test system: LOX IMVI melanoma
# M14 melanoma = test system: M14 melanoma
# MALME-3M melanoma = test system: MALME-3M melanoma
# MCF7 breast = test system: MCF7 breast
# MDA-MB-435 = test system: MDA-MB-435
# MOLT-4 leukemia = test system: MOLT-4 leukemia
# NCI-H226 lung = test system: NCI-H226 lung
# NCI-H23 lung = test system: NCI-H23 lung
# NCI-H460 lung = test system: NCI-H460 lung
# NCI-H522 lung = test system: NCI-H522 lung
# NCI/ADR-RES ovarian = test system: NCI/ADR-RES ovarian
# OVCAR-3 ovarian = test system: OVCAR-3 ovarian
# OVCAR-4 ovarian = test system: OVCAR-4 ovarian
# OVCAR-5 ovarian = test system: OVCAR-5 ovarian
# OVCAR-8 ovarian = test system: OVCAR-8 ovarian
# PC-3 prostate = test system: PC-3 prostate
# RPMI-8226 leukemia = test system: RPMI-8226 leukemia
# RXF 393 renal = test system: RXF 393 renal
# SF-268 CNS = test system: SF-268 CNS
# SF-295 CNS = test system: SF-295 CNS
# SF-539 CNS = test system: SF-539 CNS
# SK-MEL-2 melanoma = test system: SK-MEL-2 melanoma
# SK-MEL-28 melanoma = test system: SK-MEL-28 melanoma
# SK-MEL-5 melanoma = test system: SK-MEL-5 melanoma
# SK-OV-3 ovarian = test system: SK-OV-3 ovarian
# SN12C renal = test system: SN12C renal
# SNB-19 CNS = test system: SNB-19 CNS
# SNB-75 CNS = test system: SNB-75 CNS
# SR leukemia = test system: SR leukemia
# SW-620 colon = test system: SW-620 colon
# T-47D breast = test system: T-47D breast
# TK-10 renal = test system: TK-10 renal
# U251 CNS = test system: U251 CNS
# UACC-257 melanoma = test system: UACC-257 melanoma
# UACC-62 melanoma = test system: UACC-62 melanoma
# UO-31 renal = test system: UO-31 renal
# MDA-MB-231 breast = test system: MDA-MB-231 breast
smiles,measurement,setting,value
O=C(CSc1nnc(-c2ccc(Cl)cc2)n1-c1ccccc1)Nc1ccc(Cl)cc1,GI50,786-0 renal,1920 nM
same,TGI,786-0 renal,4.09 µM
same,GI50,A498 renal,1880 nM
same,TGI,A498 renal,5.15 µM
same,GI50,A549 NSCLC,3670 nM
same,TGI,A549 NSCLC,> 100 µM
same,GI50,ACHN renal,1760 nM
same,TGI,ACHN renal,3.98 µM
same,GI50,BT-549 breast,3.66 µM
same,TGI,BT-549 breast,38.8 µM
same,GI50,CAKI-1 renal,2950 nM
same,TGI,CAKI-1 renal,13 µM
same,GI50,CCRF-CEM leukemia,> 100000 nM
same,TGI,CCRF-CEM leukemia,> 100 µM
same,GI50,COLO 205 colon,15.7 µM
same,TGI,COLO 205 colon,> 100 µM
same,GI50,DU-145 prostate,7.41 µM
same,TGI,DU-145 prostate,> 100 µM
same,GI50,EKVX NSCLC,20.9 µM
same,TGI,EKVX NSCLC,> 100 µM
same,GI50,HCC-2998 colon,43.9 µM
same,TGI,HCC-2998 colon,> 100000 nM
same,GI50,HCT-116 colon,1980 nM
same,TGI,HCT-116 colon,4.29 µM
same,GI50,HCT-15 colon,87.1 µM
same,TGI,HCT-15 colon,> 100000 nM
same,GI50,HL-60(TB) leukemia,> 100000 nM
same,TGI,HL-60(TB) leukemia,> 100 µM
same,GI50,HOP-62 NSCLC,3340 nM
same,TGI,HOP-62 NSCLC,16 µM
same,GI50,HOP-92 NSCLC,2720 nM
same,TGI,HOP-92 NSCLC,9.6 µM
same,GI50,HS 578T breast,3.52 µM
same,TGI,HS 578T breast,> 100 µM
same,GI50,HT29 colon,7.79 µM
same,TGI,HT29 colon,> 100 µM
same,GI50,IGROV1 ovarian,5.24 µM
same,TGI,IGROV1 ovarian,> 100 µM
same,GI50,K-562 leukemia,13.4 µM
same,TGI,K-562 leukemia,> 100000 nM
same,GI50,KM12 colon,47.1 µM
same,TGI,KM12 colon,> 100 µM
same,GI50,LOX IMVI melanoma,2980 nM
same,TGI,LOX IMVI melanoma,10.2 µM
same,GI50,M14 melanoma,25.1 µM
same,TGI,M14 melanoma,> 100 µM
same,GI50,MALME-3M melanoma,3670 nM
same,TGI,MALME-3M melanoma,22.3 µM
same,GI50,MCF7 breast,5.76 µM
same,TGI,MCF7 breast,> 100 µM
same,GI50,MDA-MB-435,21.5 µM
same,TGI,MDA-MB-435,> 100 µM
same,GI50,MOLT-4 leukemia,> 100000 nM
same,TGI,MOLT-4 leukemia,> 100 µM
same,GI50,NCI-H226 lung,3200 nM
same,TGI,NCI-H226 lung,20.8 µM
same,GI50,NCI-H23 lung,5.09 µM
same,TGI,NCI-H23 lung,43.7 µM
same,GI50,NCI-H460 lung,2770 nM
same,TGI,NCI-H460 lung,8.09 µM
same,GI50,NCI-H522 lung,3110 nM
same,TGI,NCI-H522 lung,17.2 µM
same,GI50,NCI/ADR-RES ovarian,4.06 µM
same,TGI,NCI/ADR-RES ovarian,> 100 µM
same,GI50,OVCAR-3 ovarian,6.2 µM
same,TGI,OVCAR-3 ovarian,57.8 µM
same,GI50,OVCAR-4 ovarian,3380 nM
same,TGI,OVCAR-4 ovarian,> 100 µM
same,GI50,OVCAR-5 ovarian,4.89 µM
same,TGI,OVCAR-5 ovarian,> 100 µM
same,GI50,OVCAR-8 ovarian,3.79 µM
same,TGI,OVCAR-8 ovarian,29.9 µM
same,GI50,PC-3 prostate,20.1 µM
same,TGI,PC-3 prostate,> 100 µM
same,GI50,RPMI-8226 leukemia,4140 nM
same,TGI,RPMI-8226 leukemia,> 100 µM
same,GI50,RXF 393 renal,2030 nM
same,TGI,RXF 393 renal,4.98 µM
same,GI50,SF-268 CNS,4.85 µM
same,TGI,SF-268 CNS,> 100 µM
same,GI50,SF-295 CNS,5.56 µM
same,TGI,SF-295 CNS,21.1 µM
same,GI50,SF-539 CNS,2380 nM
same,TGI,SF-539 CNS,5.18 µM
same,GI50,SK-MEL-2 melanoma,13.6 µM
same,TGI,SK-MEL-2 melanoma,63.8 µM
same,GI50,SK-MEL-28 melanoma,15.4 µM
same,TGI,SK-MEL-28 melanoma,> 100 µM
same,GI50,SK-MEL-5 melanoma,8.07 µM
same,TGI,SK-MEL-5 melanoma,> 100 µM
same,GI50,SK-OV-3 ovarian,4.53 µM
same,TGI,SK-OV-3 ovarian,17.3 µM
same,GI50,SN12C renal,3190 nM
same,TGI,SN12C renal,> 100 µM
same,GI50,SNB-19 CNS,7.08 µM
same,TGI,SNB-19 CNS,> 100 µM
same,GI50,SNB-75 CNS,1570 nM
same,TGI,SNB-75 CNS,4.57 µM
same,GI50,SR leukemia,4280 nM
same,TGI,SR leukemia,> 100 µM
same,GI50,SW-620 colon,8.68 µM
same,TGI,SW-620 colon,> 100000 nM
same,GI50,T-47D breast,3200 nM
same,TGI,T-47D breast,> 100 µM
same,GI50,TK-10 renal,2200 nM
same,TGI,TK-10 renal,5.76 µM
same,GI50,U251 CNS,3200 nM
same,TGI,U251 CNS,11.5 µM
same,GI50,UACC-257 melanoma,39.8 µM
same,TGI,UACC-257 melanoma,> 100 µM
same,GI50,UACC-62 melanoma,4.81 µM
same,TGI,UACC-62 melanoma,> 100 µM
same,GI50,UO-31 renal,1830 nM
same,TGI,UO-31 renal,5.2 µM
CCOC(=O)c1c(NC(=O)c2cccc(C(F)(F)F)c2)sc2c3c(ccc12)OCN(C)C3,GI50,A498 renal,1630 nM
same,TGI,A498 renal,3.07 µM
same,GI50,A549 NSCLC,2070 nM
same,TGI,A549 NSCLC,4.9 µM
same,GI50,ACHN renal,1760 nM
same,TGI,ACHN renal,3.27 µM
same,GI50,CAKI-1 renal,1570 nM
same,TGI,CAKI-1 renal,2.99 µM
same,GI50,CCRF-CEM leukemia,1560 nM
same,TGI,CCRF-CEM leukemia,4.62 µM
same,GI50,COLO 205 colon,2.21 µM
same,TGI,COLO 205 colon,5.08 µM
same,GI50,DU-145 prostate,1.79 µM
same,TGI,DU-145 prostate,3.23 µM
same,GI50,EKVX NSCLC,1.64 µM
same,TGI,EKVX NSCLC,3.24 µM
same,GI50,HCC-2998 colon,1.52 µM
same,TGI,HCC-2998 colon,2980 nM
same,GI50,HCT-116 colon,1950 nM
same,TGI,HCT-116 colon,4.74 µM
same,GI50,HCT-15 colon,1.31 µM
same,TGI,HCT-15 colon,2690 nM
same,GI50,HL-60(TB) leukemia,1540 nM
same,TGI,HL-60(TB) leukemia,4.29 µM
same,GI50,HOP-62 NSCLC,2330 nM
same,TGI,HOP-62 NSCLC,6.08 µM
same,GI50,HOP-92 NSCLC,1400 nM
same,TGI,HOP-92 NSCLC,3.05 µM
same,GI50,IGROV1 ovarian,1.69 µM
same,TGI,IGROV1 ovarian,3.5 µM
same,GI50,K-562 leukemia,0.394 µM
same,TGI,K-562 leukemia,1800 nM
same,GI50,KM12 colon,1.68 µM
same,TGI,KM12 colon,3.19 µM
same,GI50,LOX IMVI melanoma,1680 nM
same,TGI,LOX IMVI melanoma,3.25 µM
same,GI50,MALME-3M melanoma,1980 nM
same,TGI,MALME-3M melanoma,3.74 µM
same,GI50,MCF7 breast,1.67 µM
same,TGI,MCF7 breast,3.3 µM
same,GI50,MDA-MB-231 breast,1700 nM
same,TGI,MDA-MB-231 breast,3.33 µM
same,GI50,MDA-MB-435,1.69 µM
same,TGI,MDA-MB-435,3.13 µM
same,GI50,MOLT-4 leukemia,1860 nM
same,TGI,MOLT-4 leukemia,4.54 µM
same,GI50,NCI-H226 lung,1780 nM
same,TGI,NCI-H226 lung,3.78 µM
same,GI50,NCI-H23 lung,1.89 µM
same,TGI,NCI-H23 lung,3.84 µM
same,GI50,NCI-H460 lung,1640 nM
same,TGI,NCI-H460 lung,3.28 µM
same,GI50,NCI-H522 lung,2220 nM
same,TGI,NCI-H522 lung,5.55 µM
same,GI50,OVCAR-3 ovarian,1.7 µM
same,TGI,OVCAR-3 ovarian,3.21 µM
same,GI50,OVCAR-4 ovarian,1790 nM
same,TGI,OVCAR-4 ovarian,3.61 µM
same,GI50,OVCAR-5 ovarian,1.67 µM
same,TGI,OVCAR-5 ovarian,3.15 µM
same,GI50,OVCAR-8 ovarian,2.26 µM
same,TGI,OVCAR-8 ovarian,5.24 µM
same,GI50,RPMI-8226 leukemia,1540 nM
same,TGI,RPMI-8226 leukemia,4.27 µM
same,GI50,RXF 393 renal,1470 nM
same,TGI,RXF 393 renal,3.02 µM
same,GI50,SF-268 CNS,1.89 µM
same,TGI,SF-268 CNS,3.79 µM
same,GI50,SF-295 CNS,1.78 µM
same,TGI,SF-295 CNS,3.35 µM
same,GI50,SF-539 CNS,1660 nM
same,TGI,SF-539 CNS,3.19 µM
same,GI50,SK-MEL-28 melanoma,1.71 µM
same,TGI,SK-MEL-28 melanoma,3.14 µM
same,GI50,SK-MEL-5 melanoma,1.77 µM
same,TGI,SK-MEL-5 melanoma,3.27 µM
same,GI50,SK-OV-3 ovarian,2.07 µM
same,TGI,SK-OV-3 ovarian,4.31 µM
same,GI50,SN12C renal,1800 nM
same,TGI,SN12C renal,3.53 µM
same,GI50,SNB-19 CNS,1.79 µM
same,TGI,SNB-19 CNS,3.64 µM
same,GI50,SNB-75 CNS,1530 nM
same,TGI,SNB-75 CNS,3.28 µM
same,GI50,SR leukemia,463 nM
same,TGI,SR leukemia,4.58 µM
same,GI50,SW-620 colon,0.873 µM
same,TGI,SW-620 colon,2270 nM
same,GI50,T-47D breast,1940 nM
same,TGI,T-47D breast,4.57 µM
same,GI50,TK-10 renal,1910 nM
same,TGI,TK-10 renal,3.81 µM
same,GI50,U251 CNS,1850 nM
same,TGI,U251 CNS,3.93 µM
same,GI50,UACC-62 melanoma,1.68 µM
same,TGI,UACC-62 melanoma,3.17 µM
same,GI50,UO-31 renal,1530 nM
same,TGI,UO-31 renal,2.94 µM
